Measurements: the supplement of paper PMC10307832

Legend:
Assay in all cases: relative viability (nuclei count vs DMSO), 5 days (fraction); higher = more cells survive
IMD-0354 + Navitoclax = compound: O=C(Nc1cc(C(F)(F)F)cc(C(F)(F)F)c1)c1cc(Cl)ccc1O [IMD-0354] + CC1(C)CCC(c2ccc(Cl)cc2)=C(CN2CCN(c3ccc(C(=O)NS(=O)(=O)c4ccc(N[C@H](CCN5CCOCC5)CSc5ccccc5)c(S(=O)(=O)C(F)(F)F)c4)cc3)CC2)C1 [Navitoclax] (partner 0.5 µM)
Outline: (§1)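 Values are medians from duplicate plates. Each reflects relative viability, defined as the nuclei count of treated wells over that of vehicle wells. Lung cancer cell lines in 1536-well plates were pin-tool dosed one day after seeding with one drug alone or with a fixed anchor-drug dose plus five library-drug doses (not always all listed) in √10 steps, then fixed, stained and imaged at 4× after 5 days.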

IMD-0354 + Linsitinib = compound: O=C(Nc1cc(C(F)(F)F)cc(C(F)(F)F)c1)c1cc(Cl)ccc1O [IMD-0354] + C[C@]1(O)C[C@@H](c2nc(-c3ccc4ccc(-c5ccccc5)nc4c3)c3c(N)nccn32)C1 [Linsitinib] (partner 1 µM)
Outline: as §1

IMD-0354 + Palbociclib = compound: O=C(Nc1cc(C(F)(F)F)cc(C(F)(F)F)c1)c1cc(Cl)ccc1O [IMD-0354] + CC(=O)c1c(C)c2cnc(Nc3ccc(N4CCNCC4)cn3)nc2n(C2CCCC2)c1=O [Palbociclib] (partner 0.5 µM)
Outline: as §1

CX-5461 + Tozasertib = compound: Cc1cnc(CNC(=O)c2c(=O)c3ccc(N4CCCN(C)CC4)nc3n3c2sc2ccccc23)cn1 [CX-5461] + Cc1cc(Nc2cc(N3CCN(C)CC3)nc(Sc3ccc(NC(=O)C4CC4)cc3)n2)n[nH]1 [Tozasertib] (partner 0.1 µM)
Outline: as §1

| Cell Line | relative viability (IMD-0354 + Navitoclax; first compound 0.04 µM) | relative viability (IMD-0354 + Navitoclax; first compound 0.1265 µM) | relative viability (IMD-0354 + Navitoclax; first compound 0.4 µM) | relative viability (IMD-0354 + Navitoclax; first compound 1.265 µM) | relative viability (IMD-0354 + Navitoclax; first compound 4 µM) | relative viability (IMD-0354 + Linsitinib; first compound 0.04 µM) | relative viability (IMD-0354 + Linsitinib; first compound 0.1265 µM) | relative viability (IMD-0354 + Linsitinib; first compound 0.4 µM) | relative viability (IMD-0354 + Linsitinib; first compound 1.265 µM) | relative viability (IMD-0354 + Linsitinib; first compound 4 µM) | relative viability (IMD-0354 + Palbociclib; first compound 0.04 µM) | relative viability (IMD-0354 + Palbociclib; first compound 0.1265 µM) | relative viability (IMD-0354 + Palbociclib; first compound 0.4 µM) | relative viability (IMD-0354 + Palbociclib; first compound 1.265 µM) | relative viability (IMD-0354 + Palbociclib; first compound 4 µM) | relative viability (CX-5461 + Tozasertib; first compound 0.01 µM) | relative viability (CX-5461 + Tozasertib; first compound 0.03162 µM) | relative viability (CX-5461 + Tozasertib; first compound 0.1 µM) | relative viability (CX-5461 + Tozasertib; first compound 0.3162 µM) | relative viability (CX-5461 + Tozasertib; first compound 1 µM) |
| --- | --- | --- | --- | --- | --- | --- | --- | --- | --- | --- | --- | --- | --- | --- | --- | --- | --- | --- | --- | --- |
| NCI-H1299 | 0.981 | 1.08 | 0.259 | 0.442 | 0.146 | 0.933 | 0.895 | 0.839 | 0.168 | 0.158 | – | – | – | – | – | – | – | – | – | – |
| NCI-H1650 | 1.42 | 1.06 | 0.682 | 0.149 | 0.171 | – | – | – | – | – | 0.192 | 0.389 | 0.311 | 0.127 | 0.181 | 0.398 | 0.389 | 0.261 | 0.357 | 0.239 |
| NCI-H1648 | – | – | – | – | – | – | – | – | – | – | 0.278 | 0.227 | 0.224 | 0.21 | 0.259 | – | 0.654 | 0.607 | 0.397 | 0.514 |
| NCI-H596 | 0.96 | 0.854 | 0.777 | 0.982 | 0.476 | 0.973 | 1.05 | 0.839 | 1.21 | 0.682 | – | – | – | – | – | 0.866 | 1.04 | 0.984 | 0.863 | 0.796 |
| NCI-H2342 | – | – | – | – | – | – | – | – | – | – | 0.491 | 0.511 | 0.499 | 0.538 | 0.438 | 0.521 | 0.524 | 0.462 | 0.497 | 0.566 |
| SW 900 | – | – | – | – | – | – | – | – | – | – | 0.517 | 0.629 | 0.478 | 0.187 | 0.248 | 0.555 | 0.525 | 0.544 | 0.609 | 0.537 |
| A549 | 1.37 | 1.19 | 0.54 | 0.0726 | 0.0514 | 0.782 | 0.581 | 0.264 | 0.439 | 0.0949 | – | – | – | – | – | – | – | – | – | – |
| NCI-H358 | – | – | – | – | – | 0.993 | 0.773 | 0.385 | 0.23 | 0.221 | 0.144 | 0.136 | 0.119 | 0.0987 | 0.101 | 0.108 | 0.0952 | 0.117 | 0.103 | 0.0892 |
| NCI-H661 | – | – | – | – | – | 0.65 | 0.632 | 0.57 | 0.532 | 0.251 | 0.397 | 0.385 | 0.369 | 0.276 | 0.253 | 0.35 | 0.347 | 0.348 | 0.351 | 0.338 |
| NCI-H1563 | – | – | – | – | – | 1.25 | 1.06 | 1.11 | 0.784 | 0.457 | – | – | – | – | – | – | – | – | – | – |
| ABC-1 | – | – | – | – | – | 0.858 | 0.826 | 0.57 | 0.335 | 0.28 | 0.638 | 0.778 | 0.69 | – | 0.432 | 0.15 | 0.194 | 0.188 | – | 0.186 |
| LCLC-103H | – | – | – | – | – | 1.11 | 1.07 | 0.844 | 0.821 | 0.425 | 0.469 | 0.468 | 0.459 | 0.386 | 0.331 | 0.457 | 0.527 | 0.473 | 0.391 | 0.477 |
